# Literature values in article PMC9851200, “Multiparameter phenotypic screening for endogenous TFEB and TFE3 translocation identifies novel chemical series modulating lysosome function” (Autophagy, 2022).
# Legend:
# Design in all cases: method as in original PKIS2 published data
# [1] = target: kinases (KINOMEscan panel) (Homo sapiens, UniProt O43353); conditions: RIPK2; Published KINOMEscan; ref original PKIS2 published data; cited from earlier work
# [2] = target: kinases (KINOMEscan panel) (Homo sapiens, UniProt P07948); conditions: Published KINOMEscan; ref original PKIS2 published data; cited from earlier work
# [3] = target: kinases (KINOMEscan panel) (Homo sapiens, UniProt P17948); conditions: kinase FLT1; Published KINOMEscan; ref original PKIS2 published data; cited from earlier work
# [4] = target: kinases (KINOMEscan panel) (Homo sapiens, UniProt P49840); conditions: GSK3A; Published KINOMEscan; ref original PKIS2 published data; cited from earlier work
# [5] = target: kinases (KINOMEscan panel) (Homo sapiens, UniProt Q13464); conditions: ROCK1; Published KINOMEscan; ref original PKIS2 published data; cited from earlier work
# [6] = target: T1, kinases (KINOMEscan panel) (Homo sapiens, UniProt Q8N568); conditions: Published KINOMEscan; ref original PKIS2 published data; cited from earlier work
# T1 sequence (Q8N568 1-766): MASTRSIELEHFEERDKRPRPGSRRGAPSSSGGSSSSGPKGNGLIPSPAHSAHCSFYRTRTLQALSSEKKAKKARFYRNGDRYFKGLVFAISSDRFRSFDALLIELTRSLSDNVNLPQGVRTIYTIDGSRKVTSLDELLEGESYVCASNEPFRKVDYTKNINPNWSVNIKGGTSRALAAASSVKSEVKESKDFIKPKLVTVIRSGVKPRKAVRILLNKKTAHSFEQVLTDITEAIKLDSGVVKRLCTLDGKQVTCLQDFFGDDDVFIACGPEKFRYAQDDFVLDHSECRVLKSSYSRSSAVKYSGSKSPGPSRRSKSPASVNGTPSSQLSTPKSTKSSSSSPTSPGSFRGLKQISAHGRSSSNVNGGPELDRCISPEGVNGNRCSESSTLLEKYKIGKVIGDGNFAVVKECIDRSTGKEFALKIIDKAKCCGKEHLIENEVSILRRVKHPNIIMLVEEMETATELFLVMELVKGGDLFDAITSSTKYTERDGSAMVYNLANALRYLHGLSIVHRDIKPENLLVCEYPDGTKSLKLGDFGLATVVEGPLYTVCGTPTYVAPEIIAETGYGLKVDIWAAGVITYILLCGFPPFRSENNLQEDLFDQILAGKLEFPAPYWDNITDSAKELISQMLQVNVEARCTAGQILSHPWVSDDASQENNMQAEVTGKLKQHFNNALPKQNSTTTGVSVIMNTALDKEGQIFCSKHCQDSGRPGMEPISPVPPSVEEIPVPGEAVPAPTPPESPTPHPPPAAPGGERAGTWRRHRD
# [7] = target: T2, kinases (KINOMEscan panel) (Homo sapiens, UniProt Q96PY6); conditions: kinase NEK1; Published KINOMEscan; ref original PKIS2 published data; cited from earlier work
# T2 sequence (Q96PY6 1-1258): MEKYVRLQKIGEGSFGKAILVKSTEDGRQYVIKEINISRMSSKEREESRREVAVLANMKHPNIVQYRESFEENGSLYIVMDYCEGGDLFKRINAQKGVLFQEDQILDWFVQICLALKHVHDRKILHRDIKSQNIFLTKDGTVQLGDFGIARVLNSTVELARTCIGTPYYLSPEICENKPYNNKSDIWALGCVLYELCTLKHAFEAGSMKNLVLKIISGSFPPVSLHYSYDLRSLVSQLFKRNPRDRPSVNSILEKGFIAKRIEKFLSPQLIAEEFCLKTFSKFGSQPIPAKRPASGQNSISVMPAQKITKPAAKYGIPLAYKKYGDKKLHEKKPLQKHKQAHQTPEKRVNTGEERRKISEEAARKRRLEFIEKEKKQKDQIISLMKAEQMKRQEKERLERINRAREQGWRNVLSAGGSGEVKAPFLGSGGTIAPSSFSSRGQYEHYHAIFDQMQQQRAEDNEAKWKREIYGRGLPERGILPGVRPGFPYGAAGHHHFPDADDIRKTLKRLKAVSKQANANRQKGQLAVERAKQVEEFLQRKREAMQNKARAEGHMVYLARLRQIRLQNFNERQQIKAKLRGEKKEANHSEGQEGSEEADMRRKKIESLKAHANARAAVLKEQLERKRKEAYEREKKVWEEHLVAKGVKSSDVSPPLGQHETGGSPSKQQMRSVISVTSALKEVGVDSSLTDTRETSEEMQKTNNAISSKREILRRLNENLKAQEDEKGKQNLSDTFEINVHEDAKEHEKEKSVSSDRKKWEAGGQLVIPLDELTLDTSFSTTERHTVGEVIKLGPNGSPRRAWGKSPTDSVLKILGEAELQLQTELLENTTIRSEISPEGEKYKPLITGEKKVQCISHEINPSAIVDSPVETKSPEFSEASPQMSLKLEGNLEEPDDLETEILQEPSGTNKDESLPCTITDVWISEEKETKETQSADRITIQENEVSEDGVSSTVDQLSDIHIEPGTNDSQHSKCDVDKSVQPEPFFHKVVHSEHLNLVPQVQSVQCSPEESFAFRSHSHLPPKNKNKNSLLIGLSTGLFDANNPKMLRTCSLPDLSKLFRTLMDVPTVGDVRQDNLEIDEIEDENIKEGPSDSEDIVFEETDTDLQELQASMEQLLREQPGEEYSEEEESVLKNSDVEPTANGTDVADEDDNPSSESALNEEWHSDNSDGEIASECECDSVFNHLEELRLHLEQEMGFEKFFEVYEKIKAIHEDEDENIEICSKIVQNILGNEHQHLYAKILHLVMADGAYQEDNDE
# [8] = target: kinases (KINOMEscan panel) (Homo sapiens, UniProt Q96SB4); conditions: kinase SRPK1; Published KINOMEscan; ref original PKIS2 published data; cited from earlier work
# [9] = target: kinases (KINOMEscan panel) (Homo sapiens, UniProt Q9HCP0); conditions: kinase CSNK1G1; Published KINOMEscan; ref original PKIS2 published data; cited from earlier work
# kinases (KINOMEscan panel) (Homo sapiens, UniProt Q9HCP0), sequence (Q9HCP0 whole entry): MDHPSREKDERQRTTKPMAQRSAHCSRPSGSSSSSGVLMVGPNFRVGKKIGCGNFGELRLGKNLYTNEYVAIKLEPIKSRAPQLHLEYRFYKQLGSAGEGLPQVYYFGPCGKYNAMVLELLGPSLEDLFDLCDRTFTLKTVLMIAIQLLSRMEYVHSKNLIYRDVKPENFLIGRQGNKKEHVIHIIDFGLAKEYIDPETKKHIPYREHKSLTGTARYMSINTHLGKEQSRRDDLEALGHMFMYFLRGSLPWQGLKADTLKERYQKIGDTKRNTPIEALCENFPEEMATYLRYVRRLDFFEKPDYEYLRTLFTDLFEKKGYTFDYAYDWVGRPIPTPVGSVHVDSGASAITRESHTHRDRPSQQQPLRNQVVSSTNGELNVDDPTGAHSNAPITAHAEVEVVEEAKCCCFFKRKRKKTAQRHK
# kinases (KINOMEscan panel) (Homo sapiens, UniProt P07948), sequence (P07948 whole entry): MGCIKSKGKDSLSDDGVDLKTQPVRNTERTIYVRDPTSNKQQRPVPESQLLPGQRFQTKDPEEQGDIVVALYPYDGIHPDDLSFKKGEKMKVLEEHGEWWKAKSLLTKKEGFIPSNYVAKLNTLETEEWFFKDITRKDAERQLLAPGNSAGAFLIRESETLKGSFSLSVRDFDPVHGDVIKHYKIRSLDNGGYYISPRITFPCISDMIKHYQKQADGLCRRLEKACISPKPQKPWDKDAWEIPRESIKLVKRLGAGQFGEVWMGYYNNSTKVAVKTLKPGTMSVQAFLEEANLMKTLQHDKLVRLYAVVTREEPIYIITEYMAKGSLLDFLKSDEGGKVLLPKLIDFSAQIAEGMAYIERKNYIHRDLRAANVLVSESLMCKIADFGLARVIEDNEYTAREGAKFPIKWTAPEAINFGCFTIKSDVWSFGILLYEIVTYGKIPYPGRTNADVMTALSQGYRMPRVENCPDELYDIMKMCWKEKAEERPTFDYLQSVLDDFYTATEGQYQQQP
# kinases (KINOMEscan panel) (Homo sapiens, UniProt O43353), sequence (O43353 whole entry): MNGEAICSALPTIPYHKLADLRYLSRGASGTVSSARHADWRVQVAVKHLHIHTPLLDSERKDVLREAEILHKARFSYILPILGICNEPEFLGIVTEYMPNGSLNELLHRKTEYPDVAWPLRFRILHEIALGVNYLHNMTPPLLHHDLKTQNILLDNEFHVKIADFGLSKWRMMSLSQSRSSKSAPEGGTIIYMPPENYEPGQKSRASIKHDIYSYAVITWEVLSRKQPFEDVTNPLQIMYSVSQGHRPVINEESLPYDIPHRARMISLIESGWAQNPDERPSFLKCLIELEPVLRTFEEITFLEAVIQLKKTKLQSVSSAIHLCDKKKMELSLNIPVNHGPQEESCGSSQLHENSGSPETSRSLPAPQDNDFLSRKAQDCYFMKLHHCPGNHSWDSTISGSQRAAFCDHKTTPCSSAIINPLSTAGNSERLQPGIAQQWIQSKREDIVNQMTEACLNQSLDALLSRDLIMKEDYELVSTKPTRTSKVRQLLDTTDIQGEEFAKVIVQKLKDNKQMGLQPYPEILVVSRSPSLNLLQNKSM
# kinases (KINOMEscan panel) (Homo sapiens, UniProt P17948), sequence (P17948 27-1338): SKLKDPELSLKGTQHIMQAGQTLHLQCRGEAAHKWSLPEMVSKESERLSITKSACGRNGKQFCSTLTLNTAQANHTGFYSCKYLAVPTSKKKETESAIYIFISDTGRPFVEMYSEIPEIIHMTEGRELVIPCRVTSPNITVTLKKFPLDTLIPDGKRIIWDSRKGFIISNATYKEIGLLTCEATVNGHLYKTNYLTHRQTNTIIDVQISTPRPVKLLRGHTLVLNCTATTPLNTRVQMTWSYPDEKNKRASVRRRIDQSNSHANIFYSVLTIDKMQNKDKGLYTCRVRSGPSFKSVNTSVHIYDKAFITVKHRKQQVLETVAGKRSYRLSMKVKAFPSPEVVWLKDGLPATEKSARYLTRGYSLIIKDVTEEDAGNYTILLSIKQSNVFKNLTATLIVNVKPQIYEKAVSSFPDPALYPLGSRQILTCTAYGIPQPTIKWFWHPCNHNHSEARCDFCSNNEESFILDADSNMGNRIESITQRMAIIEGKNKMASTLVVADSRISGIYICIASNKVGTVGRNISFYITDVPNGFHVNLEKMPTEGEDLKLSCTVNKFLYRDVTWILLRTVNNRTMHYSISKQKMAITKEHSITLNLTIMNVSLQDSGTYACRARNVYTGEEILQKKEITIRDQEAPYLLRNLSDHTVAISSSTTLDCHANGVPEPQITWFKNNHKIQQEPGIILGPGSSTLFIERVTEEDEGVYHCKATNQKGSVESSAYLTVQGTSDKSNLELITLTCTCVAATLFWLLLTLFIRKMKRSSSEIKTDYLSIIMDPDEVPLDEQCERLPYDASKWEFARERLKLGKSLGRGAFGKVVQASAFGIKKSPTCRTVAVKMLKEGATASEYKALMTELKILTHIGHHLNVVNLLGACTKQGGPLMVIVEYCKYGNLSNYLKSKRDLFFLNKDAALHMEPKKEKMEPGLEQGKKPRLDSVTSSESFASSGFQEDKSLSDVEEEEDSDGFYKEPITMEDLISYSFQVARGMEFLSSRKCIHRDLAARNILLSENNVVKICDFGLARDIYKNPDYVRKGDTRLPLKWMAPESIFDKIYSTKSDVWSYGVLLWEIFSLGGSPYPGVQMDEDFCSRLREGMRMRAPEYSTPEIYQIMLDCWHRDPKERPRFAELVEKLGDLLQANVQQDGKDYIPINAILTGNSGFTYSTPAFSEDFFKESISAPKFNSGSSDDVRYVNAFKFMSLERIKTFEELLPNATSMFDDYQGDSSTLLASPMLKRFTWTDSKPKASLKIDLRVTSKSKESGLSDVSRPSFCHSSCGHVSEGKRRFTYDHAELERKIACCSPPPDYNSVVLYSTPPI
# kinases (KINOMEscan panel) (Homo sapiens, UniProt Q13464), sequence (Q13464 whole entry): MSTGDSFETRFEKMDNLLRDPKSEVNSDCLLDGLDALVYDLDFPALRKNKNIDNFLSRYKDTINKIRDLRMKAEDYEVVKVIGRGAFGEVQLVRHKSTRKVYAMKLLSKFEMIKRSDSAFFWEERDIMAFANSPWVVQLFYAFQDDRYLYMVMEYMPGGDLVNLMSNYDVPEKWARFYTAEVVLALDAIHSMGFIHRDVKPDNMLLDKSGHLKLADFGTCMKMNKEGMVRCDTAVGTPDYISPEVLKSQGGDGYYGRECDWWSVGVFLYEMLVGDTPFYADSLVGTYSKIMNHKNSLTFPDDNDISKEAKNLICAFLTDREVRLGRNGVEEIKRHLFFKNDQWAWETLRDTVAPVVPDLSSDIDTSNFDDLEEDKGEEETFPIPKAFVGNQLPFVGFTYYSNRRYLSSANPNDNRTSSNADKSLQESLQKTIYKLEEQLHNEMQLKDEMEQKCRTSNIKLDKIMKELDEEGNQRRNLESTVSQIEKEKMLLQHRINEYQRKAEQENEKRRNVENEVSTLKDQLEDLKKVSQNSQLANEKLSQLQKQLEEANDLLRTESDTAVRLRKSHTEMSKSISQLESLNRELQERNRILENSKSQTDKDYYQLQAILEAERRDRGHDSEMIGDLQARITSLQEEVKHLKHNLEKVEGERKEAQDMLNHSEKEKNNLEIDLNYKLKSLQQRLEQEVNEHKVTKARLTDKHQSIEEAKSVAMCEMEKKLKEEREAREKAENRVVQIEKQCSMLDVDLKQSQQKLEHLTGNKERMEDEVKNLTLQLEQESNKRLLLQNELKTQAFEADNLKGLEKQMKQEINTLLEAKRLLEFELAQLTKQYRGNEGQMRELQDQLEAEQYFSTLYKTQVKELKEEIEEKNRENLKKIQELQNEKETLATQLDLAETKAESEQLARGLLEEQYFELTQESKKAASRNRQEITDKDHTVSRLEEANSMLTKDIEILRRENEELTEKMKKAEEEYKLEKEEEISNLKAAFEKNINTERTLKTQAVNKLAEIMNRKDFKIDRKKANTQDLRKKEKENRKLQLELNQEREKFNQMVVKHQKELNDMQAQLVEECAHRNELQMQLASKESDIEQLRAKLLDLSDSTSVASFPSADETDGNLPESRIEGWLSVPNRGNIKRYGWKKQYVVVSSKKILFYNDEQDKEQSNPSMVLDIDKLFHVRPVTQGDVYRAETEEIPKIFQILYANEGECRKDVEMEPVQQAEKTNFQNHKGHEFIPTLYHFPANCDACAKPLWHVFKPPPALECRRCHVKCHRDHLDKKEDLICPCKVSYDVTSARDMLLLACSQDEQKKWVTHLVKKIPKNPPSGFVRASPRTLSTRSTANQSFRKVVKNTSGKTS
# kinases (KINOMEscan panel) (Homo sapiens, UniProt Q96SB4), sequence (Q96SB4 whole entry): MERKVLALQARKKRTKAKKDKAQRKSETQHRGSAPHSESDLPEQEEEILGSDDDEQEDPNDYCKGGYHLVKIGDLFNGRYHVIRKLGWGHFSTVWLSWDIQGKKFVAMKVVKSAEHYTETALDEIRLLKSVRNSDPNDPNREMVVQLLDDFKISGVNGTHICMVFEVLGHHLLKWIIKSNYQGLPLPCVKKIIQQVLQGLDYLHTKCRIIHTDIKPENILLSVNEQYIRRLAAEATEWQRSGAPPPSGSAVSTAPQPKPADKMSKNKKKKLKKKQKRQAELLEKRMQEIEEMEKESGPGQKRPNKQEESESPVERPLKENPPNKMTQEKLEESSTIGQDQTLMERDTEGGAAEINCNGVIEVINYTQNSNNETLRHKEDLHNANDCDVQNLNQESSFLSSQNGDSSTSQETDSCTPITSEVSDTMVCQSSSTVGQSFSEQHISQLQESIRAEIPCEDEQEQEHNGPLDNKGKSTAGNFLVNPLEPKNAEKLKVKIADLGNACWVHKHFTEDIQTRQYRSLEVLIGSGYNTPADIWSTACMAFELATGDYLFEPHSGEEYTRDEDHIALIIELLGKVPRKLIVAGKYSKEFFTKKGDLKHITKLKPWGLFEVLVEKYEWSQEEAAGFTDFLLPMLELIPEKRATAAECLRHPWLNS
smiles,measurement,setting,value
Cc1cccc(-c2nc(Nc3ccncc3)c3ccccc3n2)n1 [NK215],KINOMEscan RIPK2,[1],71
same,KINOMEscan LYN,[2],0
same,KINOMEscan FLT1,[3],0
same,KINOMEscan GSK3A,[4],4
same,KINOMEscan ROCK1,[5],0
same,KINOMEscan DCLK2,[6],0
same,KINOMEscan NEK1,[7],0
same,KINOMEscan SRPK1,[8],0
same,KINOMEscan CSNK1G1,[9],0
